Reference: US20120041071A1, “[…] TREATING PAIN DUE TO OSTEOARTHRITIS” (Gruenenthal GmbH, priority 2007, published 2012)

Experiments:
[1] = target: recombinantly produced μ-opioid receptor (Homo sapiens, UniProt P35372); test: Affinity to recombinantly produced μ-opioid receptor; format: binding; details: in humans; relative to morphine
pain = test: Clinical studies of pain-alleviating action compared with morphine; format: in vivo, human
[2] = tested on: moderate to severe pain due to arthrosis of the knee; test: Randomised, placebo-controlled double-blind study, tapentadol PR vs oxycodone HCl CR, 28 days (Example 1); format: in vivo, human; details: compared with oxycodone
Method: The efficacy and tolerability of tapentadol with prolonged release (prolonged release (PR)) and oxycodone HCl with controlled release (controlled release (CR)) were compared with a placebo in patients with moderate to severe pain due to arthrosis of the knee.
Patients (N=670) were randomly selected and treated over 28 days twice with tapentadol PR 100 mg, with tapentadol PR 200 mg, with oxycodone HCl CR 20 mg or with a placebo. The dose was titrated at the start of the treatment. The primary efficacy endpoint was the average perception of pain during the preceding 24 hours at the time of the last medical examination (final visit) based on a visual analog 100-mm sale (VAS, 0 mm=no pain, 100 mm=worst pain imaginable)).
The study consisted of a 14-day, double-blind titration phase (3 days->11 days) followed by a 14-day double-blind maintenance phase (at the highest dose of the titration scheme in each case; see FIG. 1):
tapentadol PR 100 mg: 25 mg (bid)->50 mg (bid)->100 mg (bid);
tapentadol PR 200 mg: 100 mg (bid)->150 mg (bid)->200 mg (bid);
oxycodone HCl CR 20 mg: 10 mg (bid)->10 mg (bid)->20 mg (bid).

Sequence of recombinantly produced μ-opioid receptor (P35372 whole entry): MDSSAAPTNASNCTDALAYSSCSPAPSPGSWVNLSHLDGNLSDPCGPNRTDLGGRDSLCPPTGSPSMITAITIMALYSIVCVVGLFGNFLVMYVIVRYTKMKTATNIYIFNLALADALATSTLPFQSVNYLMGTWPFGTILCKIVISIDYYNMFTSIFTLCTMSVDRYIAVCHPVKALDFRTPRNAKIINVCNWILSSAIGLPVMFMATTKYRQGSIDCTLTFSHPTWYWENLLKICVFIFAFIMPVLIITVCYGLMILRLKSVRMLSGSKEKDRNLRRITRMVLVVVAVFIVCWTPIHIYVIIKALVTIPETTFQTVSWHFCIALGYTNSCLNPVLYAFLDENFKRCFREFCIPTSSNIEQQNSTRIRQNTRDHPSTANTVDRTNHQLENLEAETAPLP

CC[C@@H](c1cccc(O)c1)[C@@H](C)CN(C)C [tapentadol, (−)-(1R,2R)-3-(3-dimethylamino-1-ethyl-2-methyl-propyl)-phenol]
affinity to the recombinantly produced μ-opioid receptor, times less than that of morphine [1]: 18 times | pain-alleviating action relative to morphine (pain): two to three times less than that of morphine | tolerability with respect to gastrointestinal and central nervous system side effects [2]: better tolerated than oxycodone
